Results: patent EP0915086A1, “PHENYLSULFONAMIDE DERIVATIVES” (ONO PHARMACEUTICAL CO., LTD., priority 1996, dated 1997)
Where a name gives a salt, the structure may show the parent alone.

Target: T1, gelatinase A (Homo sapiens, UniProt P08253)
T1 construct: endogenous in cells; host or cells: human normal skin dermal fibroblasts (HNDF)
T1 sequence (P08253 110-660): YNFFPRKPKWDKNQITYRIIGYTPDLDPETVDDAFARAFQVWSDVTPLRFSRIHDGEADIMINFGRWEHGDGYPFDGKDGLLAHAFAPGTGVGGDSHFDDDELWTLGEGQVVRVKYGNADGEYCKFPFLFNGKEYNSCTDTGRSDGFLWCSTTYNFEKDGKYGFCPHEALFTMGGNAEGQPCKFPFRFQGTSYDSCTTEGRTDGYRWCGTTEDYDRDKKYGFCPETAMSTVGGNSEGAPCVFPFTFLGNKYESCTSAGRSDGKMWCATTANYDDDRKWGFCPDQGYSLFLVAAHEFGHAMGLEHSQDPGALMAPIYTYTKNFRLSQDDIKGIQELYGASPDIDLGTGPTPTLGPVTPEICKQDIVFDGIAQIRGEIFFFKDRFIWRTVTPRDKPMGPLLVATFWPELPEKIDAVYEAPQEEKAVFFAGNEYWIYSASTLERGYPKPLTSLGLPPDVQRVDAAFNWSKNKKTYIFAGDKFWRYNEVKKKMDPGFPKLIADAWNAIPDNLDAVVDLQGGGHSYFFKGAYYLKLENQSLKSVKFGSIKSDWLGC
Experiment: Inhibitory activity against gelatinase A
Assay type: biochemical
Settings: progelatinase A from human normal skin dermal fibroblasts (HNDF), activated with APMA; substrate MOCAc-Pro-Leu-Gly-A2pr(Dnp)-Ala-Arg-NH2; 37 °C, 20 minutes; fluorescence Ex 328 nm, Em 393 nm
Experimental: Progelatinase A (7 µl; in assay buffer (90 µl)) was purified from human normal skin dermal fibroblasts (HNDF). It was activated by addition of 10 mM p-aminophenyl mercuric acetate (APMA) (10 µl) and preincubation at 37 °C for 1 hour. The solution (890 µl; the final concentration was […]) of the synthetic substrates (MOCAc-Pro-Leu-Gly-A2pr(Dnp)-Ala-Arg-NH2) was mixed with various concentrations of the test compound or a solution without it (10 µl) and the mixture was preincubated at 37 °C for 5 minutes. The activated gelaninase A prepared above (7 µl/tube, 100 µl) was added to the reaction mixture and further incubated at 37 °C for 20 minutes. The enzyme reaction was terminated by addition of 0.1 M sodium acetate buffer (2ml; pH 4.0).
The IC50 value was determined by measuring the fluorescent intensity (Ex = 328 nm, and Em = 393 nm) in this solution.

| IC50 | SMILES |
| --- | --- |
| 2.4 nM | CCCCCC#Cc1ccc(S(=O)(=O)N[C@H](C)C(=O)NO)cc1 [Example 6(11), N-Hydroxy-[N-[4-[4-(1-heptynyl)]phenylsulfonyl]-D-alanyl]amide] |
| 7.5 nM | Cc1ccc(C#Cc2ccc(S(=O)(=O)N(C)[C@H](C)C(=O)NO)cc2)cc1 [Example 10, N-Hydroxy-[N-methyl-N-[4-[2-(4-methylphenyl)ethynyl]phenylsulfonyl]-D-alanyl]amide] |
| 0.2 nM | Cc1ccc(/C=C/c2ccc(S(=O)(=O)N[C@H](C)C(=O)NO)cc2)cc1 [Example 6(2), N-Hydroxy-[N-[4-[2-(4-methylphenyl)ethenyl]phenylsulfonyl]-D-alanyl]amide] |
| 0.7 nM | CCCC#Cc1ccc(S(=O)(=O)N(C)[C@H](C)C(=O)NO)cc1 [Example 10(4)] |
| 6.2 nM | Cc1ccc(C=Cc2ccc(S(=O)(=O)N[C@H](C)C(=O)O)cc2)cc1 (stereo in doubt) [Example 3(1), N-[4-[2-(4-Methylphenyl)ethenyl]phenylsulfonyl]-D-alanine] |
| 1.2 nM | CCCC#Cc1ccc(S(=O)(=O)N[C@H](C)C(=O)NO)cc1 [Example 6(1), N-Hydroxy-[N-[4-(1-pentynyl)phenylsulfonyl]-D-alanyl]amide] |
| 6.5 nM | Cc1ccc(C#Cc2ccc(S(=O)(=O)N[C@H](Cc3c[nH]c4ccccc34)C(=O)O)cc2)cc1 [Example 2(4), N-[4-[2-(4-Methylphenyl)ethynyl]phenylsulfonyl]-D-tryptophan] |
| 0.4 nM | C[C@H](C(=O)NO)N(C)S(=O)(=O)c1ccc(C#Cc2ccc(-n3ccnc3)cc2)cc1 [Example 10(3), N-Hydroxy-[N-methyl-N-[4-[2-[4-(1-imidazolyl)phenyl]ethynyl]phenylsulfonyl]-D-alanyl]amide hydrochloride] |
| 13 nM | Cc1ccc(C#Cc2ccc(S(=O)(=O)N[C@H](C)C(=O)O)cc2)cc1 [Example 2(1), N-[4-[2-(4-Methylphenyl)ethynyl]phenylsulfonyl]-D-alanine] |
| 0.8 nM | C#Cc1ccc(S(=O)(=O)N[C@H](CCC(=O)NCCc2ccccc2)C(=O)NO)cc1 [Example 6(17), N-Hydroxy-[N-(4-ethynyl)phenylsulfonyl-N'-(2-phenylethyl)-D-glutaminyl]amide] |

| SMILES | IC50 |
| --- | --- |
| O=C(O)[C@@H](Cc1c[nH]c2ccccc12)NS(=O)(=O)c1ccc(C#Cc2ccc(-n3ccnc3)cc2)cc1 [Example 2(18), N-[4-[2-(4-Imidazolylphenyl)ethynyl]phenylsulfonyl]-D-tryptophan] | 11 nM |
| CN(CCc1ccccc1)C(=O)CC[C@@H](NS(=O)(=O)c1ccc(C#Cc2ccc(-n3ccnc3)cc2)cc1)C(=O)O [Example 2(27), N-[4-[2-(4-Imidazolylphenyl)ethynyl]phenylsulfonyl]-N'-methyl-N'-(2-phenylethyl)-D-glutamine] | 3.3 nM |
| Cc1ccc(C#Cc2ccc(S(=O)(=O)N[C@H](C)C(=O)NO)cc2)cc1 [Example 6(4), N-Hydroxy-[N-[4-[2-(4-methylphenyl)ethynyl]phenylsulfonyl]-D-alanyl]amide] | 0.7 nM |

Target: T2, collagenase (Homo sapiens, UniProt P03956)
T2 construct: endogenous in cells; host or cells: human normal dermal fibroblasts (HNDF)
T2 sequence (P03956 100-469): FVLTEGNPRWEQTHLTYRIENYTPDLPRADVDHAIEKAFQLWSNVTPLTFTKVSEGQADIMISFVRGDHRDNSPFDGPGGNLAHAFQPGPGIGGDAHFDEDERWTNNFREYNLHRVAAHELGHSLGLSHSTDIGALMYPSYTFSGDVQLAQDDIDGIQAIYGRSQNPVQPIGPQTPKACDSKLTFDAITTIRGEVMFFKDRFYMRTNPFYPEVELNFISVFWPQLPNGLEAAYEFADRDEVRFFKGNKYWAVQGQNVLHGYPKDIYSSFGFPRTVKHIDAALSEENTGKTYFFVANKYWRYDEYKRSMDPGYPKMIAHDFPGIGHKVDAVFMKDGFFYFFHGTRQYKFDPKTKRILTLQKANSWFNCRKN
Experiment: Inhibitory activity against collagenase
Assay type: biochemical
Settings: procollagenase from human normal dermal fibroblasts (HNDF), activated with trypsin; substrate Ac-Pro-Leu-Gly-[2-mercapto-4-methyl-pentanoyl]-Leu-Gly-OEt; 26 °C, 10 minutes; absorption at 324 nm
Experimental: Trypsin (45 µl; 1 mg/ml) was added to a solution of procollagenase (5 µM) purified from human normal dermal fibloblasts (HNDF) in assay buffer (105 µl). The solution was preincubated in order to activate the enzyme at 37°C for 1 minute.
Trypsin was inactivated by addition of soybean trypsin inhibitor (SBTI; 50 µl). Solutions (20 µl) of synthetic substrate (Ac-Pro-Leu-Gly-[2-mercapto-4-methyl-pentanoyl]-Leu-Gly-OEt) (105 µl; the final concentration […]) with or without various concentrations of the test compound were preincubated for 5 minutes at 26 °C.
To the solutions, activated enzyme (75 µl/tube, 50 µl) prepared above was added. The mixtures were incubated at 26 °C for 10 minutes.
Absorption at 324 nm was measured at 40 points during the 10 minutes.
Vmax value was determined as measured value in 30 points therein.

| IC50 | SMILES |
| --- | --- |
| 65 nM | C#Cc1ccc(S(=O)(=O)N[C@H](CCC(=O)NC(Cc2ccccc2)c2ccccc2)C(=O)NO)cc1 (stereo partly drawn) [Example 6(19), N-Hydroxy-[N-(4-ethynyl)phenylsulfonyl-N'-(1,2-diphenylethyl)-D-glutaminyl]amide] |
| 290 nM | CC#Cc1ccc(S(=O)(=O)N(C)[C@H](C)C(=O)NO)cc1 [Example 10(13), N-Hydroxy-[N-methyl-N-[4-(1-propynyl)phenylsulfonyl]-D-alanyl]amide] |
| 63 nM | C#Cc1ccc(S(=O)(=O)N[C@H](CCC(=O)NCCc2ccccc2)C(=O)NO)cc1 [Example 6(17), N-Hydroxy-[N-(4-ethynyl)phenylsulfonyl-N'-(2-phenylethyl)-D-glutaminyl]amide] |
